Reference: patent publication US7786040B2, “4-cyclopropyl-1,2,3,-thiadiazole compound, agrohorticultural plant disease controlling agent and method of using the same” (Nihon Nohyaku Co., Ltd., priority 2005, dated 2010)

What was measured:
[1] = system: powdery mildew fungus (Blumeria graminis); assay: Test Example 2: controlling effect by seed dressing against wheat powdery mildew, long-lasting effect; assay type: in vivo; details: 0.15% active ingredient based on weight of dry seeds, inoculated 50 days after sowing, investigated 7 days after inoculation
Excerpt: (§1) Seeds of wheat (cultivar: chihoku komugi) and a wettable powder prepared according to Formulation Example were placed in a vinyl bag, followed by adding thereto a small volume of water, and they were mixed to conduct seed dressing. On the day after this treatment, the seeds sowed in a plastic pot of 10 cm diameter, and cultivated in a greenhouse. Twenty five days after sowing, the seedlings thus obtained were inoculated with powdery mildew fungus (Blumeria graminis) by sprinkling. Seven days after inoculation, the seedlings were investigated and infection index was estimated according to the criterion shown below, after which the control efficacy (%) was calculated. In this occasion, infection index on the untreated plot was 8.0. As comparative examples, the following compounds described in JP-A-2001-10909 were evaluated. • I: 3′-chloro-4,4′-dimethyl-1,2,3-thiadiazole-5-carboxanilide • II: benzyl 4-isopropyl-1,2,3-thiadiazole-5-carboxylate • III: methyl 4-cyclopropyl-1,2,3-thiadiazole-5-carboxylate • IV: 4-cyclopropyl-1,2,3-thiadiazole-5-carboxylic acid Infection Index • 0: No infection. • 0.5: Lesion area percentage: less than 10% • 1: Lesion area percentage; 10 to less than 20% • 2: Lesion area percentage; 20 to less than 30% • 3: Lesion area percentage; 30 to less than 40% • 4: Lesion area percentage; 40 to less than 50% • 5: Lesion area percentage; 50 to less than 60% • 6: Lesion area percentage; 60 to less than 70% • 7: Lesion area percentage; 70 to less than 80% • 8: Lesion area percentage; 80 to less than 90% • 9: Lesion area percentage; 90 to less than 100% • 10: Lesion area percentage; 100% Control efficacy (%)={1-(infection index on treated plot/infection index on untreated plot)}×100 Rank of Control Efficacy • A: Control efficacy 100-90% • B: Control efficacy 89-80% • C: Control efficacy 79-60% • D: Control efficacy 59-0%
Seeds of wheat (cultivar: Chihoku Komugi) and a wettable powder prepared according to Formulation Example were placed in a vinyl bag, followed by adding thereto a small volume of water, and they were mixed to conduct seed dressing. On the day after this treatment, the seeds sowed in a plastic pot of 10 cm diameter, and cultivated in a greenhouse. Fifty days after sowing, the seedlings thus obtained were inoculated with powdery mildew fungus (Blumeria graminis) by sprinkling. Seven days after inoculation, the seedlings were investigated and infection index was estimated according to the criterion shown below, after which the control efficacy (%) was calculated. In this occasion, infection index on the untreated plot was 8.0. As comparative examples, the above-described compounds I, II, III and IV were evaluated.

[2] = system: powdery mildew fungus (Blumeria graminis); assay: Test Example 1: controlling effect by seed dressing against wheat powdery mildew; assay type: in vivo; details: 0.15% active ingredient based on weight of dry seeds, inoculated 25 days after sowing, investigated 7 days after inoculation
Excerpt: as §1

Row | Structure (SMILES) | Rank of control efficacy [1] | Rank of control efficacy [2]
1 | O=C(OCc1ccccc1Cl)c1snnc1C1CC1 [1-10, (2-chlorobenzyl)4-cyclopropyl-1,2,3-thiadiazole-5-carboxylate] | B or more | B or more
2 | Cc1ccccc1COC(=O)c1snnc1C1CC1 [1-13] | B or more | B or more
3 | Cc1ccc(COC(=O)c2snnc2C2CC2)cc1 [1-15] | B or more | B or more
4 | COc1ccccc1COC(=O)c1snnc1C1CC1 [1-16] | B or more | B or more
5 | COc1ccc(COC(=O)c2snnc2C2CC2)cc1 [1-18] | B or more | B or more
6 | CC(C)(C)OC(=O)c1ccc(COC(=O)c2snnc2C2CC2)cc1 [1-25] |  | B or more
7 | O=C(OCc1ccc(Cl)cc1Cl)c1snnc1C1CC1 [1-26] |  | B or more
8 | CC(OC(=O)c1snnc1C1CC1)c1ccccc1 (stereo not shown) [1-41] | B or more | B or more
9 | Cc1ccc(C(C)OC(=O)c2snnc2C2CC2)cc1 (stereo not shown) [1-47] |  | B or more
10 | O=C(NCc1ccc(Cl)cc1)c1snnc1C1CC1 [1-56] |  | B or more
11 | Cc1ccc(CNC(=O)c2snnc2C2CC2)cc1 [1-59] |  | B or more
12 | Cc1ccc(Oc2ccc(CNC(=O)c3snnc3C3CC3)cc2)cc1 [1-65] |  | B or more
13 | O=C(NCc1ccc(Oc2ccc(C(F)(F)F)cc2)cc1)c1snnc1C1CC1 [1-66] |  | B or more
14 | COC(c1ccc(NC(=O)c2snnc2C2CC2)cc1OC(C)C)(C(F)(F)F)C(F)(F)F [1-103] |  | B or more
15 | CS(=O)(=O)NC(=O)c1snnc1C1CC1 [1-120] |  | B or more
16 | O=C(NS(=O)(=O)C(F)(F)F)c1snnc1C1CC1 [1-122] |  | B or more
17 | Cc1cccc(C)c1NC(=O)c1snnc1C1CC1 [1-151] |  | B or more

Row | Structure (SMILES) | Rank of control efficacy [1] | Rank of control efficacy [2]
18 | CCc1cccc(CC)c1NC(=O)c1snnc1C1CC1 [1-152] |  | B or more
19 | Cc1cccc(C)c1N(C(=O)c1snnc1C1CC1)C(=O)c1snnc1C1CC1 [1-153] |  | B or more
20 | CCc1cccc(CC)c1N(C(=O)c1snnc1C1CC1)C(=O)c1snnc1C1CC1 [1-154] |  | B or more
21 | O=C(NS(=O)(=O)c1ccc(Cl)cc1)c1snnc1C1CC1 [1-157] |  | B or more
22 | O=C(NS(=O)(=O)c1ccccc1Cl)c1snnc1C1CC1 [1-158] |  | B or more
23 | Cc1ccc(CNC(=O)c2snnc2C2CC2)c(C)c1 [1-162] |  | B or more
24 | Cc1ccc(C)c(CNC(=O)c2snnc2C2CC2)c1 [1-163] |  | B or more
25 | O=C(NCc1ccc(Cl)cc1Cl)c1snnc1C1CC1 [1-164] |  | B or more
26 | COc1cc(CNC(=O)c2snnc2C2CC2)cc(OC)c1 [1-168] |  | B or more
27 | Cc1nsc(NC(=O)c2snnc2C2CC2)c1Br [1-174] |  | B or more
28 | COc1ccc2nc(NC(=O)c3snnc3C3CC3)sc2c1 [1-180] |  | B or more
29 | CN(C)c1ccncc1.COc1ccc2nc(NC(=O)c3snnc3C3CC3)sc2c1 [1-181] |  | B or more
30 | Cc1nc(-c2ccccc2NC(=O)c2snnc2C2CC2)no1 [1-182] |  | B or more
31 | O=C(NCc1cnc(Cl)s1)c1snnc1C1CC1 [1-185] |  | B or more
32 | O=C(Nc1cccc2c1C(=O)OC2)c1snnc1C1CC1 [1-186] |  | B or more
33 | O=c1oc(-c2snnc2C2CC2)nc2ccccc12 [2-1, 2-(4-cyclopropyl-1,2,3-thiadiazol-5-yl)-4-H-3,1-benzoxazin-4-one] |  | B or more
34 | CC(C)c1nnsc1C(=O)OCc1ccccc1 [II, benzyl 4-isopropyl-1,2,3-thiadiazole-5-carboxylate, reference compound] |  | C (Control efficacy 79-60%)
